Experimental data reported in the supplement of paper PMC10307832.

Key:
Experiment in all cases: relative viability (nuclei count vs DMSO), 5 days (fraction); higher = more cells survive
[1] = compound: COc1cc2c(Oc3ccc4[nH]c(C)cc4c3F)ncnc2cc1OCCCN1CCCC1 [Cediranib] + NC(=O)Nc1cc(-c2cccc(F)c2)sc1C(=O)N[C@H]1CCCNC1 [AZD7762] (partner 0.2 µM)
How it was run: (§1)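 Each reported value is a median over duplicate plates. It expresses relative viability: treated-well nuclei count divided by vehicle-well nuclei count. Lung cancer cell lines in 1536-well plates were dosed by pin tool a day after seeding, alone with one drug or with a fixed anchor-drug dose plus five library-drug doses (not always all listed) in √10 steps, and nuclei were counted after 5 days.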

[2] = compound: COc1cc2c(Oc3ccc4[nH]c(C)cc4c3F)ncnc2cc1OCCCN1CCCC1 [Cediranib] + O=C(CCCCCCC(=O)Nc1ccccc1)NO [Vorinostat] (partner 1 µM)
How it was run: as §1

[3] = compound: Nc1ncn([C@H]2C[C@H](O)[C@@H](CO)O2)c(=O)n1 [Decitabine] + Cc1nc(Nc2ncc(C(=O)Nc3c(C)cccc3Cl)s2)cc(N2CCN(CCO)CC2)n1 [Dasatinib] (partner 0.075 µM)
How it was run: as §1

[4] = compound: O=C(C[C@H]1NCCC[C@@H]1O)Cn1cnc2cc(Br)c(Cl)cc2c1=O (racemic) [Halofuginone] + C[C@@H](Oc1cc(-c2cnn(C3CCNCC3)c2)cnc1N)c1c(Cl)ccc(F)c1Cl [Crizotinib] (partner 1 µM)
How it was run: as §1

Row | Cell Line | relative viability ([1]; first compound 0.04 µM) | relative viability ([1]; first compound 0.1265 µM) | relative viability ([1]; first compound 0.4 µM) | relative viability ([1]; first compound 1.265 µM) | relative viability ([1]; first compound 4 µM) | relative viability ([2]; first compound 0.04 µM) | relative viability ([2]; first compound 0.1265 µM) | relative viability ([2]; first compound 0.4 µM) | relative viability ([2]; first compound 1.265 µM) | relative viability ([2]; first compound 4 µM) | relative viability ([3]; first compound 0.04 µM) | relative viability ([3]; first compound 0.1265 µM) | relative viability ([3]; first compound 0.4 µM) | relative viability ([3]; first compound 1.265 µM) | relative viability ([3]; first compound 4 µM) | relative viability ([4]; first compound 0.001 µM) | relative viability ([4]; first compound 0.003162 µM) | relative viability ([4]; first compound 0.01 µM) | relative viability ([4]; first compound 0.03162 µM) | relative viability ([4]; first compound 0.1 µM)
1 | NCI-H1355 | 0.806 | 1.08 | 0.717 | 0.668 | 0.714 | 0.688 | 0.684 | 0.572 | 0.544 | 0.616 | 0.61 | 0.6 | 0.369 | 0.276 | 0.296 | 1.04 | 1.04 | 1.08 | 1.08 | 0.921
2 | NCI-H2170 | 0.871 | – | 0.743 | 0.611 | 1.1 | 0.88 | – | 0.793 | 0.718 | 0.962 | 0.528 | 0.502 | 0.461 | 0.269 | 0.228 | 1.27 | 1.34 | 1.21 | 1.21 | 1
3 | NCI-H2347 | 0.808 | 0.808 | 0.755 | 0.746 | 0.691 | 0.693 | 0.621 | 0.538 | 0.577 | 0.512 | 0.295 | 0.315 | 0.351 | 0.283 | 0.286 | 0.677 | 0.72 | 0.81 | 0.736 | 0.551
4 | A-427 | 0.816 | – | 0.685 | 0.659 | 0.707 | 0.846 | – | 0.835 | 0.853 | 0.882 | 0.51 | 0.341 | 0.214 | 0.196 | 0.206 | 0.941 | 0.911 | 0.795 | 0.807 | 0.764
5 | HCC-366 | 0.41 | 0.314 | 0.181 | 0.376 | 0.266 | 0.346 | 0.401 | 0.29 | 0.287 | 0.394 | 0.608 | 0.632 | 0.567 | 0.195 | 0.128 | 0.759 | 0.515 | 0.607 | 0.544 | 0.0412
6 | HCC-78 | 0.719 | 1.01 | 0.659 | 0.532 | 0.645 | 0.45 | 0.367 | 0.443 | 0.499 | 0.49 | 0.269 | 0.334 | 0.361 | 0.285 | 0.208 | 0.396 | 0.356 | 0.314 | 0.341 | 0.237
7 | PC-14 | 0.247 | 0.377 | 0.355 | 0.262 | 0.344 | 0.831 | 0.755 | 0.744 | 0.801 | 0.451 | 0.0322 | 0.142 | 0.0565 | 0.0706 | 0.0858 | 1 | 0.826 | 0.727 | 0.722 | 0.183
8 | NCI-H2087 | 1.08 | 1.34 | 1.26 | 1.23 | 1.43 | 0.939 | 0.694 | 0.474 | 0.671 | 0.63 | 0.523 | 0.452 | 0.358 | 0.246 | 0.23 | 0.738 | 0.902 | 0.77 | 0.851 | 0.851
9 | HOP-62 | 0.612 | 0.397 | 0.263 | 0.446 | 0.712 | 0.633 | 0.418 | 0.575 | 0.468 | 0.896 | 0.634 | 0.622 | 0.284 | 0.14 | 0.147 | 0.905 | 0.958 | 0.971 | 0.972 | 0.676
10 | EKVX | 0.731 | 0.609 | 0.636 | – | 0.798 | 0.956 | 0.534 | 0.63 | 0.916 | 0.697 | 0.479 | 0.494 | 0.368 | 0.36 | 0.329 | 0.921 | 0.9 | 1.04 | 0.891 | 0.635
11 | EMC-BAC-2 | 1.06 | 0.952 | 1.11 | 1.07 | 1.15 | 0.403 | – | 0.407 | 0.485 | 0.499 | 0.334 | 0.343 | 0.343 | 0.284 | 0.26 | 0.856 | 0.805 | 0.778 | 0.769 | 0.32
12 | HARA | 0.35 | 0.279 | 0.234 | 0.267 | 0.251 | 0.549 | 0.315 | 0.489 | 0.64 | 0.519 | 0.311 | 0.261 | 0.232 | 0.257 | 0.138 | 1.17 | 1.05 | 0.985 | 1.05 | 0.943
13 | LU99A | 0.457 | – | 0.338 | 0.287 | 0.41 | 0.456 | – | 0.51 | 0.407 | 0.578 | 0.508 | 0.615 | 0.653 | 0.481 | 0.373 | 0.632 | 0.556 | 0.558 | 0.499 | 0.41
14 | NCI-H1944 | 0.487 | 0.586 | 0.481 | 0.408 | 0.582 | 0.588 | 0.694 | 0.502 | 0.53 | 0.643 | 0.201 | 0.242 | 0.177 | 0.2 | 0.211 | 1.1 | 1.19 | 1.11 | 1.05 | 0.803
15 | LK-2 | 0.463 | 0.275 | 0.327 | 0.284 | 0.319 | 0.352 | 0.332 | 0.421 | 0.353 | 0.279 | 0.406 | 0.445 | 0.227 | 0.266 | 0.301 | 0.198 | 0.242 | 0.198 | 0.229 | 0.208
16 | NCI-H441 | 1.26 | 1.25 | 1.07 | 1.16 | 1.18 | 0.864 | 0.825 | 0.767 | 0.824 | 0.909 | 0.335 | 0.266 | 0.26 | 0.211 | 0.206 | 0.967 | 1.1 | 0.677 | 0.694 | 0.311
17 | NCI-H23 | 0.222 | 0.383 | 0.246 | 0.331 | 0.286 | 0.545 | 0.487 | 0.532 | 0.587 | 0.789 | 0.689 | 0.653 | 0.356 | 0.271 | 0.192 | 0.582 | 0.724 | 0.486 | 0.609 | 0.218
